According to US8946264B2, “Pyridine derivative” (Daiichi Sankyo Company, Limited, priority 2009, dated 2015):

Key:
KK mice = assay: Hypoglycemic effect (glucose lowering rate) in diabetic KK mice; assay type: in vivo; settings: male KK mice, diet admixture containing 0.03% of the compound, three days, plasma glucose on the 3rd day vs control group; for inhibition in vivo at 0.03 % in diet: Mus musculus, po, 72 h
Source text: Six-week-old male KK mice were purchased from CLEA Japan, Inc. and then were fed until 15 to 20 weeks old to develop diabetes. The mice were individually fed during the adaptation period and the test period, and water and feed (FR2, Funabashi Farm) were freely ingested.
At the start of the experiment, after body weight measurement, blood was collected from the tail vein of the mice into a heparin-coated glass tube and centrifuged, and then plasma was separated. The glucose level in the plasma was measured by Glucoloader GXT (A&T Corp.), and individuals having a plasma glucose level of about 350 mg/dl or more were selected. The mice were grouped, each group having 3 to 4 mice, to make the average body weight and the average plasma glucose level similar. Each compound was administered to a compound group with a diet admixture containing 0.03% of the compound. A separate group in which the mice were fed only with diet was a control group.
The experiment period (drug administration period) was three days. The grouping day was the 0th day. On the 3rd day, the body weight was measured and blood was collected from the tail vein to measure the plasma glucose level.
The glucose lowering rate was determined by the following formula. Glucose lowering rate=[(Control group plasma glucose level−Compound-administered group plasma glucose level)/Control group plasma glucose level]×100

[1] = target: T1, GAL4-PPARγ chimeric receptor (Homo sapiens, UniProt P37231); assay: PPARγ activation effect/modulator activity, GAL4-PPARγ luciferase reporter assay in COS-7 cells; assay type: cell-based; settings: for Emax: COS-7, maximum luciferase activity, positive control rosiglitazone = 100%, DMSO control = 0%
T1 construct: expressed in transfected cells; host or cells: COS-7 (monkey kidney-derived cell line)
T1 sequence (P37231 with tags, fused parts or gaps): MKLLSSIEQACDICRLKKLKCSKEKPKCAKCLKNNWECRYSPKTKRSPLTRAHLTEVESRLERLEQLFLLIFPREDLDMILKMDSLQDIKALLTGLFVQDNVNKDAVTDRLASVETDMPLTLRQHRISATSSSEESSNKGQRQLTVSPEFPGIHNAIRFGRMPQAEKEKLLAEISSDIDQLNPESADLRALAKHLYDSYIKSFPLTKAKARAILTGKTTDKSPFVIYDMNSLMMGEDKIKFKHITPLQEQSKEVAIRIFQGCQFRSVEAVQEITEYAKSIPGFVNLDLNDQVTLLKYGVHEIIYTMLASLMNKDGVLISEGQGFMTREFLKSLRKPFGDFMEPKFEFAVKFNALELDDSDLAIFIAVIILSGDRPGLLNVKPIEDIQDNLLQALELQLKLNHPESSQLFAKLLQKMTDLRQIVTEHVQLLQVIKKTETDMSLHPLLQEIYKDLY
Description: A test was carried out according to the reporter assay method with reference to a report by Kliewer et al. (Journal of Biological Chemistry, 1995, Vol. 270 (22), p. 12953-12956) as a method for measuring the ability of a compound to activate PPARγ (hereinafter PPARγ activation effect/modulator activity). Commercially available reagents and kits were used according to the attached instructions. The details will be shown below. The ligand-binding domain of human PPARγ (corresponding to about 300 amino acids at the carboxy end) was bound to the DNA-binding domain of the yeast transcription factor GAL4 (corresponding to 147 amino acids at the amino end) with reference to the report by Kliewer et al. to prepare a gene expressing a GAL4-PPARγ receptor. The plasmid pM-PPARγ obtained by the above operation includes the nucleotide sequence represented by SEQ ID NO: 4 of the Sequence Listing and encodes an amino acid sequence represented by SEQ ID NO: 5 of the Sequence Listing containing amino acids 1 to 147 of the yeast transcription factor GAL4 at the amino end and containing amino acids 175 to 475 of human PPARγ and a stop codon at the carboxy end. The plasmid is a gene that can express a GAL4-PPARγ chimeric receptor in mammalian cells. The previously acquired plasmid pM-PPARγ and the plasmid pFR-Luc purchased from Stratagene Cloning Systems, Inc. were dissolved in deionised water at a concentration of 1 mg/mL each. […] COS-7 cells were transfected with 4.8 micrograms per flask of the plasmid pM-PPARγ and 19.2 μg per flask of the plasmid pFR-Luc using Lipofectamine 2000 transfection reagent (manufactured by Invitrogen Corporation), and the cells were cultured overnight. […] The test compound was dissolved in dimethyl sulfoxide at a concentration of 4 mM. The solution was serially diluted 3.3-fold with dimethyl sulfoxide to prepare solutions of the compound at concentrations up to 400 nM. Dimethyl sulfoxide was prepared for the control group. Rosiglitazone dissolved in dimethyl sulfoxide at a concentration of 4 mM was prepared for the positive control group. They were diluted 20-fold with the medium, and 5 μL of the dilution was added to the wells in which the cells were grown. […] After the addition, the cells were cultured overnight. On the following day, the medium was removed, and Luc Lite (manufactured by PerkinElmer Inc.) was prepared according to the attached document and added at 50 microliters per well. […] The amount of luminescence in each well was measured as luciferase activity using Analyst (Molecular Devices) for 0.5 second. A dose-dependent curve was drawn.

| SMILES | inhibition in vivo at 0.03 % in diet (KK mice) | EC50 [1] | Emax [1] | Glucose lowering rate (%) (KK mice) |
| --- | --- | --- | --- | --- |
| Cn1c(COc2cccc(C(=O)O)c2)nc2ccc(Oc3cccnc3)cc21 [Compound A, reference compound] | 20% |  |  |  |
| CCc1cccnc1Oc1ccc2nc(COc3cccc(C(=O)O)c3)n(C)c2c1 [Example 2, 3-({6-[(3-Ethylpyridin-2-yl)oxy]-1-methyl-1H-benzimidazol-2-yl}methoxy)benzoic acid] | 31% | 180 nM | 73% |  |
| Cc1ccc(Oc2ccc3nc(COc4cccc(C(=O)O)c4)n(C)c3c2)nc1C [Example 4, 3-({6-[(5,6-Dimethylpyridin-2-yl)oxy]-1-methyl-1H-benzimidazol-2-yl}methoxy)benzoic acid] |  |  |  | 28% |
| Cn1c(COc2cccc(C(=O)O)c2)nc2ccc(Oc3ncc(Cl)cc3F)cc21 [Example 5, 3-({6-[(5-Chloro-3-fluoropyridin-2-yl)oxy]-1-methyl-1H-benzimidazol-2-yl}methoxy)benzoic acid] | 34% | 24 nM | 79% |  |
| Cc1cc(F)cnc1Oc1ccc2nc(COc3cccc(C(=O)O)c3)n(C)c2c1 [Example 8, 3-({6-[(5-Fluoro-3-methylpyridin-2-yl)oxy]-1-methyl-1H-benzimidazol-2-yl}methoxy)benzoic acid] |  |  |  | 33% |
| Cc1cnc(Oc2ccc3nc(COc4cccc(C(=O)O)c4)n(C)c3c2)c(F)c1 [Example 9, 3-({6-[(3-Fluoro-5-methylpyridin-2-yl)oxy]-1-methyl-1H-benzimidazol-2-yl}methoxy)benzoic acid] |  |  |  | 41% |
| Cc1cnc(Oc2ccc3nc(COc4cccc(C(=O)O)c4)n(C)c3c2)c(C)c1 [Example 10, 3-({6-[(3,5-Dimethylpyridin-2-yl)oxy]-1-methyl-1H-benzimidazol-2-yl}methoxy)benzoic acid] |  |  |  | 37% |
| Cc1cc(C)c(Oc2ccc3nc(COc4cccc(C(=O)O)c4)n(C)c3c2)nc1C [Example 15, 3-({1-Methyl-6-[(3,5,6-trimethylpyridin-2-yl)oxy]-1H-benzimidazol-2-yl}methoxy)benzoic acid] |  |  |  | 30% |
| COc1cc(Oc2ccc3nc(COc4cccc(C(=O)O)c4)n(C)c3c2)ccn1 [Example 16, 3-({6-[(2-Methoxypyridin-4-yl)oxy]-1-methyl-1H-benzimidazol-2-yl}methoxy)benzoic acid] | 17% |  |  |  |
| COc1cc(Oc2ccc3nc(COc4cccc(C(=O)O)c4)n(C)c3c2)cc(C)n1 [Example 17, 3-({6-[(2-Methoxy-6-methylpyridin-4-yl)oxy]-1-methyl-1H-benzimidazol-2-yl}methoxy)benzoic acid] | 36% |  |  |  |
